Measurements from paper PMC10465493, “Osteogenic induction of asiatic acid derivatives in human periodontal ligament stem cells” (Scientific Reports, 2023).
Values after ≈ are worked out from the molar mass of the structure shown. Where two headings read alike, the source gives them in different places.

What was measured:
[1] = Aqueous solubility by gravimetric method; type: physicochemical; conditions: thermodynamic from solid, ultrapure water, shaken 24 h, n = 6
Protocol: Aqueous solubility of AA and its derivatives were screened using a gravimetric method. Briefly, AA and the derivatives were dissolved in an excess amount in ultrapure water, and the samples were shaken at room temperature and 37 °C for 24 h. After that, the samples were centrifuged to separate the undissolved compounds. The specific volume of supernatants was then collected and lyophilised. The residual solid after lyophilisation was weighed using a 7-digit balance (XPR2u, Mettler Toledo, OH, USA), and the maximum solubility in water at the different temperature was calculated based on the volume of the collected solution of the compounds. […]

[2] = Cell viability, PrestoBlue resazurin assay; type: cell-based, human; conditions: human, hPDLSCs, 300 nM; for viability at 24 h, 0.3 µM: day 1, general medium
Protocol: (§1) Stock solutions of AA, 501, 502, 503, and 506 were prepared in DMSO at the concentration of 100 µM, before diluting in culture medium to the desired concentration. Cell viability after exposure to the drugs was investigated using a PrestoBlue™ resazurin assay according to the manufacturer’s protocol. Cells with a density of 60,000 cells/well were plated in 24 well-plates and cultured in a normal growth medium for 24 h. Then the cells were treated with 300 nM AA and solutions of, 501, 502, 503, and 506. After 24-h and 5-day incubation, the cultures were treated with resazurin working solution, and the fluorescence intensity at an emission wavelength of 590 nm was measured with excitation of 560-nm wavelength using a microplate reader (Synergy H1, Biotek multi-mode reader, Winooski, VT, USA). Untreated cells were used as the control, and the experiment was performed on different cell lines of at least five donors.

hPDLSCs [3] = test: mRNA expression of osteogenic marker genes by quantitative RT-PCR; type: cell-based, human; conditions: for mRNA expression of all markers (BMP2, RUNX2, COL1A1, WNT3A): 100 nM (10 nM for 503)
Protocol: Cells were seeded in 24 well-plates at a density of 60,000 cells/well and treated with AA or the derivatives at different concentrations. The media was changed every other day to ensure the continuous activities of AA derivatives. For Erk inhibition experiments, cells were pretreated with 2.5 nM Erk inhibitor (cat. No. 328006, Calbiochem, San Diego, CA, USA) for 2 h prior to the treatment of AA derivatives. At each time point, the total RNA was extracted using TRIzol® reagent following the standard protocol, and the RNA content and purity were measured using a microvolume spectrophotometer (NanoDrop™ One, Thermo Fisher Scientific, USA). Then, 1 μg of RNA sample was reverse-transcribed into complementary DNA (cDNA) using Improm II reverse transcription system (Promega, USA). The expression levels of the target genes were detected by real-time polymerase chain reaction using the SYBR green detection system (FastStart Essential DNA Green Master, Roche Diagnostics, Switzerland) on the MiniOpticon™ RT-PCR system (Bio-Rad, USA). The quantitative RT-PCR was carried out using a LightCycler® 96 (Roche Diagnostics, Switzerland). The transcript expression of GAPDH was used as the internal control. The relative gene expression analysis was performed using the CFX Manager software (Bio-Rad, USA). The expression value was normalised using an expression value of cellular housekeeping gene, GAPDH, and the control was considered for each respective day.

hPDLSCs [4] = test: Cell viability, PrestoBlue resazurin assay; type: cell-based, human; conditions: 300 nM, up to 5 days
Protocol: as §1

[5] = octanol/water, cited from earlier work
osteoclastogenesis = tested on: osteoclastogenesis; set-up: method as in PMID 32292339; conditions: cited from earlier work
hPDLSCs [6] = test: BMP2 protein expression by ELISA; type: cell-based, human; conditions: 100 to 300 nM, D1 and D3, general medium
Protocol: The expression levels of targeted proteins were analysed by a sandwich ELISA assay. Firstly, the cells were lysed, and the amount of protein was analysed using a Bio-Rad BCA protein assay kit (Bio‐Rad Laboratories, USA). Following the standard protocol, the target proteins were analysed using an ELISA kit (R&D Systems, USA).

hPDLSCs [7] = test: Von Kossa and Alizarin red S staining for mineralisation; type: cell-based, human; conditions: 300 nM, 14 days, general medium, compared to osteogenic medium (positive control)
Protocol: In vitro mineralisation was visualised following calcium staining using Von Kossa’s method and Alizarin red S staining according to an established protocol. Briefly, on day 14, the cells were washed and fixed with cold methanol for 10 min before rinsing with deionised water. Von Kossa staining was performed by treating the fixed cells with 5%w/v silver nitrate solution for 30 min. For Alizarin Red S staining, the Alizarin Red S solution (0.5% w/v, pH 4.2) was incubated with the fixed cells for 5 min. The mineralised nodule formation was observed under a phase-contrast microscope (Nikon ECLIPSE Ts2, Nikon, USA). Cells cultured in a normal growth medium were used as the negative control. The cells cultured in an osteogenic medium (DMEM supplemented with […] ascorbic acid, 100 nM dexamethasone, and 10 mM β-glycerophosphate) were regarded as the positive control.

hPDLSCs [8] = test: Alkaline phosphatase (ALP) activity assay; type: cell-based, human; conditions: 100, 200, 300 nM, D3, normalised to total cellular protein
Protocol: At the designated time points, the ALP activity was measured. Cells treated with different concentrations of AA derivatives were collected, washed with PBS, and lysed with alkaline lysis buffer. The cell lysate was incubated with a mixture containing 2 mg/mL p-nitrophenyl phosphate, 0.1 M 2-amino-2-methyl-1-propanol and 2 mM MgCl2. After incubation at 37 °C for 30 min, the reaction was terminated by addition of 50 mM NaOH. The absorbance at 410 nm was measured, and the quantitative data was normalised by the amount of total cellular protein.

[9] = 37 °C, read-out: Experimental solubility in water at 37 °C (average ± SD)
[10] = room temperature, read-out: Experimental solubility in water at room temperature (average ± SD)
[11] = 300 nM, days 1 and 3, general medium

CC(=O)OC[C@@]1(C)C2CC[C@]3(C)C(CC=C4[C@@H]5[C@@H](C)[C@H](C)CC[C@]5(C(=O)NCCCN(C)C)CC[C@]43C)[C@@]2(C)C[C@@H](OC(C)=O)[C@@H]1OC(C)=O (stereo partly drawn) [compound 503]
solubility at 24 h [1, 9]: 331 ± 82.6 µg/mL (≈ 473 µM)
solubility at 24 h [1, 10]: 164 ± 28.2 µg/mL (≈ 235 µM)
viability at 24 h, 0.3 µM [2]: < 40%
mRNA expression of all markers (BMP2, RUNX2, COL1A1, WNT3A) (hPDLSCs [3]; 24 h, normal growth medium): no observable change

C[C@H]1[C@H](C)CC[C@]2(C(=O)O)CC[C@]3(C)C(=CC[C@@H]4[C@@]5(C)C[C@@H](O)[C@H](O)[C@@](C)(CO)[C@@H]5CC[C@]43C)[C@H]12 [AA, Asiatic acid]
solubility at 24 h [1, 9]: 723 ± 184 µg/mL (≈ 1480 µM)
solubility at 24 h [1, 10]: 541 ± 76.8 µg/mL (≈ 1110 µM)
Toxicity to hPDLSCs (hPDLSCs [4]): no significant toxicity
viability at 24 h, 0.3 µM [2]: > 90%
Theoretical log P ([5]; ref 33): 5.8
Theoretical log P ([5]; ref 38, 39): 5.7
Concentration required to inhibit osteoclastogenesis or bone loss (osteoclastogenesis): up to 20 µM
mRNA expression of all markers (BMP2, RUNX2, COL1A1, WNT3A) (hPDLSCs [3]; 24 h, normal growth medium): no observable change

CC(=O)OCC1(C)C(OC(C)=O)C(OC(C)=O)CC2(C)C1CCC1(C)C2CC=C2C3C(C)C(C)CCC3(C(=O)O)CCC21C (stereo not drawn) [compound 501]
solubility at 24 h [1, 9]: 654 ± 95.5 µg/mL (≈ 1060 µM)
solubility at 24 h [1, 10]: 272 ± 31.5 µg/mL (≈ 442 µM)
viability at 5 days, 0.3 µM ([2]; day 5, general medium): < 75%
mRNA expression of all markers (BMP2, RUNX2, COL1A1, WNT3A) (hPDLSCs [3]; 24 h, normal growth medium): no observable change

CCCCOC(=O)C12CCC(C)C(C)C1C1=CCC3C4(C)CC(OC(C)=O)C(OC(C)=O)C(C)(COC(C)=O)C4CCC3(C)C1(C)CC2 (stereo not drawn) [compound 502]
solubility at 24 h [1, 9]: 14.5 ± 4.7 µg/mL (≈ 21.6 µM)
solubility at 24 h [1, 10]: 10 ± 1.5 µg/mL (≈ 14.9 µM)

C[C@H]1[C@H](C)CC[C@]2(C(=O)NCCCN(C)C)CC[C@]3(C)C(=CCC4[C@@]5(C)C[C@@H](O)[C@H](O)[C@@](C)(CO)C5CC[C@]43C)[C@H]12 (stereo partly drawn) [compound 506]
solubility at 24 h [1, 9]: 852 ± 85.6 µg/mL (≈ 1490 µM)
solubility at 24 h [1, 10]: 810 ± 36 µg/mL (≈ 1410 µM)
BMP2 protein expression (hPDLSCs [6]): dose-dependent increase
Toxicity to hPDLSCs (hPDLSCs [4]): no significant toxicity
Tissue mineralisation (calcium deposition) (hPDLSCs [7]): comparable to those same cells cultured in an osteogenic medium
ALP activity (hPDLSCs [8]): dose-dependent increase
BMP2 mRNA expression (hPDLSCs [3]; 100 nM, 24 h, normal growth medium): high expression
WNT3A expression with Erk inhibitor (hPDLSCs [3]; 300 nM 506, pretreated with Erk inhibitor, general medium): inhibited
BMP2 expression (hPDLSCs [3]; 300 nM, day 1): High expression
BMP2 expression (hPDLSCs [3]; 300 nM, day 3): declining to a control level
WNT3A transcript level (hPDLSCs [3]; 300 nM, day 3): elevated transcript level
COL1A1 expression level (hPDLSCs [3]; [11]): no observable change
RUNX2 expression level (hPDLSCs [3]; [11]): no observable change
ALP expression level compared to control (hPDLSCs [3]; 300 nM, general medium): enhanced
BMP2 expression level compared to control (hPDLSCs [3]; 300 nM, general medium): enhanced
IBSP expression level compared to control (hPDLSCs [3]; 300 nM, general medium): enhanced
OSX expression level compared to control (hPDLSCs [3]; 300 nM, general medium): enhanced
BMP2 gene expression (hPDLSCs [3]; 100 to 300 nM, first day after exposure, general medium): elevated transcript level at the lower concentrations (100 and 200 nM)
